Source: ChEMBL document CHEMBL5625261, “Cytotoxic effects of kinetin riboside and its selected analogues on cancer cell lines” (Bioorg Med Chem Lett, 2024)

What was measured:
Caco-2 [1] = assay: Cytotoxicity against human Caco-2 cells assessed as reduction in cell viability incubated for 72 hrs by MTT assay; assay type: functional, cell-based; settings: Caco-2, 72 h
[2] = Cytotoxicity against human MRC5 cells assessed as reduction in cell viability incubated for 48 hrs by MTT assay; assay type: toxicity, cell-based
HeLa [3] = assay: Cytotoxicity against human HeLa cells assessed as reduction in cell viability incubated for 48 hrs by MTT assay; assay type: functional, cell-based
HeLa [4] = assay: Cytotoxicity against human HeLa cells assessed as reduction in cell viability incubated for 24 hrs by MTT assay; assay type: functional, cell-based
MCF7 [5] = assay: Cytotoxicity against human MCF7 cells assessed as reduction in cell viability incubated for 48 hrs by MTT assay; assay type: functional, cell-based; settings: MCF7, 48 h
OVCAR-3 [6] = assay: Cytotoxicity against human OVCAR-3 cells assessed as reduction in cell viability incubated for 72 hrs by MTT assay; assay type: functional, cell-based; settings: OVCAR-3, 72 h
[7] = Cytotoxicity against human MRC5 cells assessed as reduction in cell viability incubated for 24 hrs by MTT assay; assay type: toxicity, cell-based
OVCAR-3 [8] = assay: Cytotoxicity against human OVCAR-3 cells assessed as reduction in cell viability incubated for 24 hrs by MTT assay; assay type: functional, cell-based; settings: OVCAR-3, 24 h
MCF7 [9] = assay: Cytotoxicity against human MCF7 cells assessed as reduction in cell viability incubated for 72 hrs by MTT assay; assay type: functional, cell-based; settings: MCF7, 72 h
OVCAR-3 [10] = assay: Cytotoxicity against human OVCAR-3 cells assessed as reduction in cell viability incubated for 48 hrs by MTT assay; assay type: functional, cell-based; settings: OVCAR-3, 48 h
Caco-2 [11] = assay: Cytotoxicity against human Caco-2 cells assessed as reduction in cell viability incubated for 24 hrs by MTT assay; assay type: functional, cell-based; settings: Caco-2, 24 h
MCF7 [12] = assay: Cytotoxicity against human MCF7 cells assessed as reduction in cell viability incubated for 24 hrs by MTT assay; assay type: functional, cell-based; settings: MCF7, 24 h
MIA PaCa-2 [13] = assay: Cytotoxicity against human MIA PaCa-2 cells assessed as reduction in cell viability incubated for 48 hrs by MTT assay; assay type: functional, cell-based; settings: MIA PaCa-2, 48 h
Caco-2 [14] = assay: Cytotoxicity against human Caco-2 cells assessed as reduction in cell viability incubated for 48 hrs by MTT assay; assay type: functional, cell-based; settings: Caco-2, 48 h
HeLa [15] = assay: Cytotoxicity against human HeLa cells assessed as reduction in cell viability incubated for 72 hrs by MTT assay; assay type: functional, cell-based
MIA PaCa-2 [16] = assay: Cytotoxicity against human MIA PaCa-2 cells assessed as reduction in cell viability incubated for 24 hrs by MTT assay; assay type: functional, cell-based; settings: MIA PaCa-2, 24 h
[17] = Cytotoxicity against human MRC5 cells assessed as reduction in cell viability incubated for 72 hrs by MTT assay; assay type: toxicity, cell-based
MIA PaCa-2 [18] = assay: Cytotoxicity against human MIA PaCa-2 cells assessed as reduction in cell viability incubated for 72 hrs by MTT assay; assay type: functional, cell-based; settings: MIA PaCa-2, 72 h
MIA PaCa-2 [19] = assay: Cytotoxicity against human MIA PaCa-2 cells assessed as reduction in cell viability at 100 uM incubated for 72 hrs by MTT assay relative to control; assay type: functional
MIA PaCa-2 [20] = assay: Cytotoxicity against human MIA PaCa-2 cells assessed as reduction in cell viability at 100 uM incubated for 24 hrs by MTT assay relative to control; assay type: functional
HL-60 [21] = assay: Cytotoxicity against human HL-60 cells assessed as inhibition of cell growth incubated for 5 days; assay type: functional, cell-based; settings: HL-60, 120 h
MCF7 [22] = assay: Cytotoxicity against human MCF7 cells assessed as reduction in cell viability at 100 uM incubated for 24 hrs by MTT assay relative to control; assay type: functional
LOX IMVI = assay: Antiproliferative activity against human LOX IMVI cells assessed as cell growth inhibition incubated for 72 hrs by Beckman Coulter counting method; assay type: functional, cell-based
A-375 = assay: Antiproliferative activity against human A-375 cells assessed as cell growth inhibition incubated for 72 hrs by Beckman Coulter counting method; assay type: functional, cell-based; settings: A-375, 72 h
G-361 = assay: Antiproliferative activity against human G361 cells assessed as cell growth inhibition incubated for 72 hrs by Beckman Coulter counting method; assay type: functional, cell-based; settings: G-361, 72 h
HeLa [23] = assay: Cytotoxicity against human HeLa cells assessed as reduction in cell viability at 100 uM incubated for 24 hrs by MTT assay relative to control; assay type: functional
[24] = Antiproliferative activity against human PZ-HPV-7 cells assessed as reduction in cell viability incubated for 48 to 96 hrs by crystal violet staining assay; assay type: toxicity, cell-based; settings: time 48-96 hrs
DU-145 = assay: Antiproliferative activity against human DU-145 cells assessed as reduction in cell viability incubated for 48 to 96 hrs by crystal violet staining assay; assay type: functional; settings: time 48-96 hrs
A549 = assay: Antiproliferative activity against human A549 cells assessed as cell growth inhibition incubated for 48 hrs by MTT assay; assay type: functional, cell-based; settings: A549, 48 h
B16 = assay: Cytotoxicity against mouse B16 cells assessed as inhibition of cell growth incubated for 10 days by crystal violet staining based assay; assay type: functional; settings: B16, 240 h
[25] = Antiproliferative activity against human HEK cells assessed as cell growth inhibition incubated for 72 hrs by Beckman Coulter counting method; assay type: toxicity, cell-based
HCT-116 = assay: Antiproliferative activity against human HCT-116 cells assessed as cell growth inhibition incubated for 72 hrs by Beckman Coulter counting method; assay type: functional, cell-based; settings: HCT-116, 72 h
HCT-15 = assay: Antiproliferative activity against human HCT-15 cells assessed as cell growth inhibition incubated for 4 days by SRB assay; assay type: functional, cell-based; settings: HCT-15, 96 h
HT-29 = assay: Antiproliferative activity against human HT-29 cells assessed as cell growth inhibition incubated for 72 hrs by Beckman Coulter counting method; assay type: functional, cell-based; settings: HT-29, 72 h
HL-60 [26] = assay: Antiproliferative activity against human HL-60 cells assessed as cell growth inhibition incubated for 72 hrs by Calcein AM staining based fluorescence assay; assay type: functional; settings: HL-60, 72 h
CCRF-CEM = assay: Antiproliferative activity against human CEM cells assessed as cell growth inhibition incubated for 72 hrs by Calcein AM staining based fluorescence assay; assay type: functional
MCF7 [27] = assay: Antiproliferative activity against human MCF7 cells assessed as cell growth inhibition incubated for 72 hrs by Calcein AM staining based fluorescence assay; assay type: functional; settings: MCF7, 72 h
MRC5 = assay: Cytotoxicity against human MRC5 cells assessed as reduction in cell viability at 100 uM incubated for 24 hrs by MTT assay relative to control; assay type: toxicity, cell-based; settings: mrc5, 24 h
MIA PaCa-2 [28] = assay: Antiproliferative activity against human MIA PaCa-2 cells assessed as cell growth inhibition incubated for 72 hrs by Beckman Coulter counting method; assay type: functional, cell-based; settings: MIA PaCa-2, 72 h
HeLa [29] = assay: Antiproliferative activity against human HeLa cells assessed as cell growth inhibition incubated for 72 hrs by Calcein AM staining based fluorescence assay; assay type: functional
M4Beu cell line = assay: Cytotoxicity against human M4Beu cell line assessed as inhibition of cell growth incubated for 14 days by crystal violet staining based assay; assay type: functional; settings: 336 h
[30] = Antiproliferative activity against human HS27 cells assessed as cell growth inhibition incubated for 72 hrs by Beckman Coulter counting method; assay type: toxicity, cell-based

OC[C@H]1O[C@@H](n2cnc3c(NCc4ccco4)ncnc32)C[C@@H]1O
IC50 (Caco-2 [1]): > 100 µM
IC50 at 48 h [2]: > 100 µM
IC50 (HeLa [3]): > 100 µM
IC50 (HeLa [4]): > 100 µM
IC50 (MCF7 [5]): > 100 µM
IC50 (OVCAR-3 [6]): > 100 µM
IC50 at 24 h [7]: > 100 µM
IC50 (OVCAR-3 [8]): > 100 µM
IC50 (MCF7 [9]): > 100 µM
IC50 (OVCAR-3 [10]): > 100 µM
IC50 (Caco-2 [11]): > 100 µM
IC50 (MCF7 [12]): > 100 µM
IC50 (MIA PaCa-2 [13]): > 100 µM
IC50 (Caco-2 [14]): > 100 µM
IC50 (HeLa [15]): > 100 µM
IC50 (MIA PaCa-2 [16]): > 100 µM
IC50 at 72 h [17]: > 100 µM
IC50 (MIA PaCa-2 [18]): > 100 µM

Nc1nc(NCc2ccco2)c2ncn([C@@H]3O[C@H](CO)[C@@H](O)[C@H]3O)c2n1
IC50 (Caco-2 [1]): > 100 µM
IC50 at 48 h [2]: > 100 µM
IC50 (HeLa [3]): > 100 µM
IC50 (HeLa [4]): > 100 µM
IC50 (MCF7 [5]): > 100 µM
IC50 (OVCAR-3 [6]): > 100 µM
IC50 at 24 h [7]: > 100 µM
IC50 (OVCAR-3 [8]): > 100 µM
IC50 (MCF7 [9]): > 100 µM
IC50 (OVCAR-3 [10]): > 100 µM
IC50 (Caco-2 [11]): > 100 µM
IC50 (MCF7 [12]): > 100 µM
IC50 (MIA PaCa-2 [13]): > 100 µM
IC50 (Caco-2 [14]): > 100 µM
IC50 (HeLa [15]): > 100 µM
IC50 (MIA PaCa-2 [16]): > 100 µM
IC50 at 72 h [17]: > 100 µM
IC50 (MIA PaCa-2 [18]): > 100 µM

OC[C@H]1O[C@@H](n2cnc3c(NCc4ccoc4)ncnc32)[C@H](O)[C@@H]1O
IC50 (Caco-2 [1]): 6.5 µM
IC50 at 48 h [2]: 1 µM
Activity (MIA PaCa-2 [19]): ~90%
Activity (MIA PaCa-2 [20]): 40%
IC50 (HeLa [3]): > 100 µM
IC50 (HeLa [4]): > 100 µM
IC50 (MCF7 [5]): 2.2 µM
IC50 (OVCAR-3 [6]): 1.8 µM
IC50 at 24 h [7]: 16 µM
IC50 (OVCAR-3 [8]): > 100 µM
IC50 (MCF7 [9]): 2.1 µM
IC50 (OVCAR-3 [10]): 3.3 µM
IC50 (Caco-2 [11]): 18.5 µM
IC50 (MCF7 [12]): 12 µM
IC50 (MIA PaCa-2 [13]): 1.4 µM
IC50 (Caco-2 [14]): 13.1 µM
IC50 (HeLa [15]): > 100 µM
IC50 (MIA PaCa-2 [16]): > 100 µM
IC50 at 72 h [17]: 0.7 µM
IC50 (MIA PaCa-2 [18]): 1.1 µM

OC[C@H]1O[C@@H](n2cnc3c(NCc4ccco4)ncnc32)[C@H](O)[C@@H]1O [KINETIN RIBOSIDE]
IC50 (HL-60 [21]): 0.98 µM
IC50 (Caco-2 [1]): 23.5 µM
Activity (MCF7 [22]): ~80%
IC50 at 48 h [2]: 2.5 µM
IC50 (LOX IMVI): 0.16 µM
IC50 (HeLa [3]): > 100 µM
IC50 (HeLa [4]): > 100 µM
IC50 (MCF7 [5]): 2.8 µM
IC50 (OVCAR-3 [6]): 3.1 µM
IC50 (A-375): 0.16 µM
IC50 (G-361): 0.16 µM
Activity (HeLa [23]): ~30%
Activity [24]: 85%
Activity (DU-145): 35%
IC50 at 24 h [7]: 18 µM
IC50 (OVCAR-3 [8]): > 100 µM
IC50 (MCF7 [9]): 2.7 µM
IC50 (OVCAR-3 [10]): 7.8 µM
IC50 (Caco-2 [11]): 88 µM
IC50 (MCF7 [12]): 16.1 µM
IC50 (A549): 10.5 µM
IC50 (MIA PaCa-2 [13]): 3.1 µM
IC50 (B16): 0.2 µM
IC50 (Caco-2 [14]): 42 µM
IC50 (HeLa [15]): > 100 µM
IC50 at 72 h [25]: 0.11 µM
IC50 (MIA PaCa-2 [16]): > 100 µM
IC50 (HCT-116): 0.16 µM
IC50 (HCT-15): 12.3 µM
IC50 (HT-29): 0.16 µM
IC50 (HL-60 [26]): 0.8 µM
IC50 (CCRF-CEM): 1.6 µM
IC50 at 72 h [17]: 1.7 µM
IC50 (MCF7 [27]): 4.3 µM
Activity (MRC5): ~ 80%
IC50 (MIA PaCa-2 [28]): 0.16 µM
IC50 (HeLa [29]): 4.3 µM
IC50 (MIA PaCa-2 [18]): 2.6 µM
IC50 (M4Beu cell line): 1.5 µM
IC50 at 72 h [30]: 0.18 µM
